PubChem BioAssay AID2060488 (Molecular Pharmacology Branch, DTP, NCI, 2025)

System: 966289-007-R4-J1-PDC complex spheroid viability
Assay: Anticancer human tumor 966289-007-R4-J1-PDC patient-derived pancreatic adenocarcinoma cell line growth inhibition [GQUAD]
Settings: for IC50: curve of first compound; for viability, T/C: stronger effect = lower value
Outline: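 Multi-cell-type spheroids of tumor cells with HUVEC and mesenchymal stem cells, treated with drug combinations. Concentrations descend in half-log steps from near clinical Cmax, or from 10 microM where Cmax is unknown; viability read-out.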

[1] = second compound 0.0316 µM, first compound 0.0316 µM
[2] = second compound 0.0316 µM, first compound 0.316 µM
[3] = second compound 0.1 µM, first compound 0.0316 µM
[4] = second compound 0.1 µM, first compound 0.316 µM
[5] = second compound 0.316 µM, first compound 0.0316 µM
[6] = second compound 0.316 µM, first compound 0.316 µM
[7] = second compound 1 µM, first compound 0.0316 µM
[8] = second compound 1 µM, first compound 0.316 µM
[9] = second compound 3.16 µM, first compound 0.0316 µM
[10] = second compound 3.16 µM, first compound 0.316 µM
[11] = second compound 10 µM, first compound 0.0316 µM
[12] = second compound 10 µM, first compound 0.316 µM
[13] = second compound 0.0316 µM, first compound 0.1 µM
[14] = second compound 0.0316 µM, first compound 1 µM
[15] = second compound 0.0316 µM, first compound 3.16 µM
[16] = second compound 0.0316 µM, first compound 10 µM
[17] = second compound 0.1 µM, first compound 0.1 µM
[18] = second compound 0.1 µM, first compound 1 µM
[19] = second compound 0.1 µM, first compound 3.16 µM
[20] = second compound 0.1 µM, first compound 10 µM
[21] = second compound 0.316 µM, first compound 0.1 µM
[22] = second compound 0.316 µM, first compound 1 µM
[23] = second compound 0.316 µM, first compound 3.16 µM
[24] = second compound 0.316 µM, first compound 10 µM
[25] = second compound 1 µM, first compound 0.1 µM
[26] = second compound 1 µM, first compound 1 µM
[27] = second compound 1 µM, first compound 3.16 µM
[28] = second compound 1 µM, first compound 10 µM
[29] = second compound 3.16 µM, first compound 0.1 µM
[30] = second compound 3.16 µM, first compound 1 µM
[31] = second compound 3.16 µM, first compound 3.16 µM
[32] = second compound 3.16 µM, first compound 10 µM
[33] = second compound 10 µM, first compound 0.1 µM
[34] = second compound 10 µM, first compound 1 µM
[35] = second compound 10 µM, first compound 3.16 µM
[36] = second compound 10 µM, first compound 10 µM
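Note: spheroids exposed to the agents for seven days before readout.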
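Throughout, for viability, T/C: percent viability relative to DMSO vehicle control wells taken as 100%.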

Molecule `Cn1ncnc1[C@H]1c2n[nH]c(=O)c3cc(F)cc(c23)N[C@@H]1c1ccc(F)cc1` + Cc1cnc(CNC(=O)c2c(=O)c3ccc(N4CCCN(C)CC4)nc3n3c2sc2ccccc23)cn1 has an IC50 (second compound 0.0316 µM) of 19.9 nM, an IC50 (second compound 0.1 µM) of less than 0.999 nM and an IC50 (second compound 0.316 µM) of less than 0.999 nM. The IC50 (second compound 1 µM) was less than 0.999 nM, the IC50 (second compound 3.16 µM) was less than 0.999 nM and the IC50 (second compound 10 µM) was less than 0.999 nM. It also gave a viability, T/C (second compound 0.0316 µM, first compound 0.000999 µM) of 110%, a viability, T/C (second compound 0.0316 µM, first compound 0.00316 µM) of 98.6% and a viability, T/C (second compound 0.0316 µM, first compound 0.00999 µM) of 85.6%. The viability, T/C [1] was 25.9%, the viability, T/C (second compound 0.0316 µM, first compound 0.0999 µM) was 12.9% and the viability, T/C [2] was 7.23%. It also gave a viability, T/C (second compound 0.1 µM, first compound 0.000999 µM) of 42.7%, a viability, T/C (second compound 0.1 µM, first compound 0.00316 µM) of 25.4% and a viability, T/C (second compound 0.1 µM, first compound 0.00999 µM) of 17.3%. The viability, T/C [3] was 12.5%, the viability, T/C (second compound 0.1 µM, first compound 0.0999 µM) was 5.67% and the viability, T/C [4] was 3.67%. The viability, T/C (second compound 0.316 µM, first compound 0.000999 µM) was 13.8%, the viability, T/C (second compound 0.316 µM, first compound 0.00316 µM) was 10% and the viability, T/C (second compound 0.316 µM, first compound 0.00999 µM) was 7.01%. The viability, T/C [5] was 6.26%, the viability, T/C (second compound 0.316 µM, first compound 0.0999 µM) was 4.34% and the viability, T/C [6] was 2.5%. It also gave a viability, T/C (second compound 1 µM, first compound 0.000999 µM) of 5.61%, a viability, T/C (second compound 1 µM, first compound 0.00316 µM) of 5.81% and a viability, T/C (second compound 1 µM, first compound 0.00999 µM) of 4.63%. The viability, T/C [7] was 3.57%, the viability, T/C (second compound 1 µM, first compound 0.0999 µM) was 2.89% and the viability, T/C [8] was 1.85%. It also gave a viability, T/C (second compound 3.16 µM, first compound 0.000999 µM) of 4.32%, a viability, T/C (second compound 3.16 µM, first compound 0.00316 µM) of 4.8% and a viability, T/C (second compound 3.16 µM, first compound 0.00999 µM) of 3.43%. It also gave a viability, T/C [9] of 2.17%, a viability, T/C (second compound 3.16 µM, first compound 0.0999 µM) of 0.89% and a viability, T/C [10] of 0.51%. The viability, T/C (second compound 10 µM, first compound 0.000999 µM) was 0.1%, the viability, T/C (second compound 10 µM, first compound 0.00316 µM) was 0.15% and the viability, T/C (second compound 10 µM, first compound 0.00999 µM) was 0.12%. It also gave a viability, T/C [11] of 0.13%, a viability, T/C (second compound 10 µM, first compound 0.0999 µM) of 0.66% and a viability, T/C [12] of 0.13%.

`Cc1cccc(N(C)C(=O)C2C(O)CCN2c2nc(C)cc(C(F)(F)F)c2C#N)c1` (stereo not drawn) + CN(C)c1ccc(Nc2c3ccc(NC(=O)CCN4CCCC4)cc3nc3cc(NC(=O)CCN4CCCC4)ccc23)cc1 gave an IC50 (second compound 0.0316 µM) greater than 10000 nM, an IC50 (second compound 0.1 µM) greater than 10000 nM and an IC50 (second compound 0.316 µM) greater than 10000 nM. The IC50 (second compound 1 µM) was greater than 10000 nM, the IC50 (second compound 3.16 µM) was greater than 10000 nM and the IC50 (second compound 10 µM) was 1720 nM. It also gave a viability, T/C [1] of 107%, a viability, T/C [13] of 94.7% and a viability, T/C [2] of 106%. For the same molecule, the viability, T/C [14] was 95.8%, the viability, T/C [15] was 101% and the viability, T/C [16] was 99.3%. For the same molecule, the viability, T/C [3] was 107%, the viability, T/C [17] was 98.5% and the viability, T/C [4] was 103%. The viability, T/C [18] was 99.7%, the viability, T/C [19] was 102% and the viability, T/C [20] was 107%. It also gave a viability, T/C [5] of 95.8%, a viability, T/C [21] of 100% and a viability, T/C [6] of 105%. The viability, T/C [22] was 101%, the viability, T/C [23] was 102% and the viability, T/C [24] was 100%. It also gave a viability, T/C [7] of 102%, a viability, T/C [25] of 105% and a viability, T/C [8] of 107%. For the same molecule, the viability, T/C [26] was 101%, the viability, T/C [27] was 99.6% and the viability, T/C [28] was 109%. The viability, T/C [9] was 104%, the viability, T/C [29] was 106% and the viability, T/C [10] was 101%. The viability, T/C [30] was 97.3%, the viability, T/C [31] was 102% and the viability, T/C [32] was 104%. It also gave a viability, T/C [11] of 105%, a viability, T/C [33] of 103% and a viability, T/C [12] of 96.1%. It also gave a viability, T/C [34] of 72.2%, a viability, T/C [35] of 25.2% and a viability, T/C [36] of 7.13%.

Molecule `Nc1ccn(C2OC(CO)C(O)C2(F)F)c(=O)n1` (stereo not drawn) + Cc1[nH]c2ccc(F)cc2c1-c1nc2c3cccnc3c3ncccc3c2[nH]1 has an IC50 (second compound 0.0316 µM) of less than 31.6 nM, an IC50 (second compound 0.1 µM) of less than 31.6 nM and an IC50 (second compound 0.316 µM) of less than 31.6 nM. It also gave an IC50 (second compound 1 µM) of less than 31.6 nM, an IC50 (second compound 3.16 µM) of less than 31.6 nM and an IC50 (second compound 10 µM) of less than 31.6 nM. It also gave a viability, T/C [1] of 7.33%, a viability, T/C [13] of 1.13% and a viability, T/C [2] of 0.84%. It also gave a viability, T/C [14] of 0.84%, a viability, T/C [15] of 1.15% and a viability, T/C [16] of 0.76%. For the same molecule, the viability, T/C [3] was 7.75%, the viability, T/C [17] was 1% and the viability, T/C [4] was 1.28%. It also gave a viability, T/C [18] of 1.1%, a viability, T/C [19] of 0.83% and a viability, T/C [20] of 0.76%. It also gave a viability, T/C [5] of 5.74%, a viability, T/C [21] of 1.09% and a viability, T/C [6] of 1.33%. It also gave a viability, T/C [22] of 0.83%, a viability, T/C [23] of 0.67% and a viability, T/C [24] of 0.86%. It also gave a viability, T/C [7] of 7.53%, a viability, T/C [25] of 0.98% and a viability, T/C [8] of 1.01%. For the same molecule, the viability, T/C [26] was 0.85%, the viability, T/C [27] was 0.92% and the viability, T/C [28] was 0.83%. For the same molecule, the viability, T/C [9] was 4.68%, the viability, T/C [29] was 1.2% and the viability, T/C [10] was 1.1%. It also gave a viability, T/C [30] of 0.82%, a viability, T/C [31] of 1.7% and a viability, T/C [32] of 0.93%. For the same molecule, the viability, T/C [11] was 2.75%, the viability, T/C [33] was 1.07% and the viability, T/C [12] was 0.98%. It also gave a viability, T/C [34] of 0.76%, a viability, T/C [35] of 1.44% and a viability, T/C [36] of 0.94%.

For `CC(C)(O)C1CCC(Nc2ccc3ncc(-c4cccc(C(F)(F)F)c4)n3n2)CC1` (stereo not drawn) + Cc1[nH]c2ccc(F)cc2c1-c1nc2c3cccnc3c3ncccc3c2[nH]1, the IC50 (second compound 0.0316 µM) was greater than 10000 nM, the IC50 (second compound 0.1 µM) was 3110 nM and the IC50 (second compound 0.316 µM) was 2960 nM. For the same molecule, the IC50 (second compound 1 µM) was 2470 nM, the IC50 (second compound 3.16 µM) was 2500 nM and the IC50 (second compound 10 µM) was 2370 nM. The viability, T/C [1] was 108%, the viability, T/C [13] was 105% and the viability, T/C [2] was 109%. For the same molecule, the viability, T/C [14] was 89%, the viability, T/C [15] was 71.7% and the viability, T/C [16] was 55.3%. The viability, T/C [3] was 104%, the viability, T/C [17] was 100% and the viability, T/C [4] was 99.8%. It also gave a viability, T/C [18] of 93.2%, a viability, T/C [19] of 47.5% and a viability, T/C [20] of 51.3%. The viability, T/C [5] was 101%, the viability, T/C [21] was 111% and the viability, T/C [6] was 102%. The viability, T/C [22] was 105%, the viability, T/C [23] was 40.7% and the viability, T/C [24] was 52.6%. The viability, T/C [7] was 106%, the viability, T/C [25] was 106% and the viability, T/C [8] was 98.9%. It also gave a viability, T/C [26] of 110%, a viability, T/C [27] of 28.9% and a viability, T/C [28] of 41%. It also gave a viability, T/C [9] of 104%, a viability, T/C [29] of 107% and a viability, T/C [10] of 113%. It also gave a viability, T/C [30] of 113%, a viability, T/C [31] of 22.5% and a viability, T/C [32] of 47.1%. For the same molecule, the viability, T/C [11] was 97.1%, the viability, T/C [33] was 111% and the viability, T/C [12] was 112%. The viability, T/C [34] was 109%, the viability, T/C [35] was 26.2% and the viability, T/C [36] was 35.4%.
